Experimental data: patent publication US20070015232A1, “Mitotic index assay” (DiscoveRx, Inc., priority 2005, published 2007)

Columns and labels:
[1] = tested on: C2C12+EA-NLS/NRS+GR-PL cells; experiment: EFC mitotic index assay, C2C12+EA-NLS/NRS+GR-PL cells (Stanford GR cells); type: cell-based, mouse; settings: for Avg luminescence readout / R1 luminescence readout / R3 luminescence readout / Ratio (Avg vs 0 conc): 24 hours, 30 min read
Experimental: (§1) In all experiments described, 20,000 cells/well were plated in a 96 well Corning clear bottom white plate in a total volume of 100 μL. The cells were treated for 24 hours with 5 μL of either the appropriate vehicle control or varying concentrations of the six compounds listed above. The next day, 100 μL of Tropix/ABI Gal screen cell lysis buffer/substrate mixture (24:1 ratio of component) was added to the cells/media and the plate was read on the Victor II luminescent plate reader at 30, 60 and 120 minutes after the lysis/substrate addition.
(§2) The initial test of the cell cycle arresting compounds was performed on a double stable cell line having both of the constructs expressing the EA-NLS/NRS and GR-PL. (PL is β-galactosidase enzyme donor fragment and EA is the enzyme acceptor fragment available from DiscoveRx, Fremont, CA.). The parental line, C2C12 is derived from mouse muscle cells. In the experiments in which EA-NLS/NRS and GR-PL are expressed in the C2C12 parental cell line, the constructs were generated by subcloning the human GR sequence into a MFG-based retroviral vector that had been molecularly altered in a lab at Stanford. An MFG vector is described in U.S. Pat. No. 6,544,771. The EA-NLS/NRS fragment was subcloned into a wzl-based retroviral vector again molecularly altered in a lab at Stanford. In the experiments performed using a CHO-K1 parental cell line background the EA-NLS/NRS was subcloned into the Kpn I and Xba I sites of pcDNA3.1 Hygro vector from Invitrogen (catalog #V870-20). The plasmid was introduced into the cells via FuGene6 (Roche) transfection reagent. Cells were selected in the presence of 250 μg/mL of Hygromycin and single cell clones isolated that expressed the EA-NLS/NRS. The human GR gene was cloned by PCR and subcloned into the Xho I and Bam HI sites of the DiscoveRx vector-pCMV-myc-PL (C3). The plasmid was introduced into the selected EA-NLS/NRS expressing clone isolated above by FuGene 6 transfection. Another round of screening in the presence of 300-500 μg/mL of G418 was used to select GR-PL transfected clones. Clonal selection was performed to finally identify the clone that was used in these studies. In the studies using the CHO-K1+cyto-EA and cJUN-PL, the same Invitrogen pcDNA3.1 Hygro vector was used to express EA. In this case, the EA fragment was subcloned into the Kpn I/Not I sites of pcDNA3.1 Hygro. The plasmid DNA was introduced as described above using FuGene6 reagent. Cells were selected in the presence of 250 μg/mL of hygromycin and clonal selection was performed. The c-Jun gene was generated by PCR using an existing template copy of the gene and then subcloned into the Xho I/Bam HI sites of pCMV-PL-myc (C3).

[2] = tested on: CHO-K1+EA-NLS/NRS+GR-PL cells; experiment: EFC mitotic index assay, CHO-K1+EA-NLS/NRS+GR-PL cells, antibiotic selected pool (DX M19/GR pool); type: cell-based; settings: 24 hours, 30 min read
Experimental: as §1, §2
In the next experiment, an antibiotic selected pool population of CHO-K1 cells that express EA-NLS/NRS and GR-PL were tested with the same six set of cell cycle blocking compounds. […] FIGS. 2a and 2b show the immunofluorescence localization of EA and GR-PL in that the blue DAPI nuclear staining can be seen to be concentrated in the nucleus, while the green fluorescein stain on the antibody (from Abcam PLC) to the glucocorticoid receptor is seen in the cytoplasm. […] Again, six tables are presented one for each of the six drugs tested.
This only occurs with compounds that block the cells in mitosis, allowing EA and ProLabel to complement.

## CC(=O)O[C@H]1C(=O)[C@@]2(C)[C@H]([C@H](OC(=O)c3ccccc3)[C@]3(O)C[C@H](OC(=O)[C@H](O)[C@@H](NC(=O)c4ccccc4)c4ccccc4)C(C)=C1C3(C)C)[C@]1(OC(C)=O)CO[C@@H]1C[C@@H]2O [Taxol, paclitaxel]
[1]; 0.03 μM
  Avg luminescence readout: 3094
  R1 luminescence readout: 2624
  R3 luminescence readout: 3543
  Ratio (Avg vs 0 conc): 1
[1]; 0.1 μM
  Avg luminescence readout: 3684
  R1 luminescence readout: 2602
  R3 luminescence readout: 4340
  Ratio (Avg vs 0 conc): 1
[1]; 0.3 μM
  Avg luminescence readout: 3213
  R1 luminescence readout: 2638
  R3 luminescence readout: 3639
  Ratio (Avg vs 0 conc): 1
[1]; 1 μM
  Avg luminescence readout: 3692
  R1 luminescence readout: 3016
  R3 luminescence readout: 4104
  Ratio (Avg vs 0 conc): 1
[2]; 0.03 μM
  Avg luminescence readout: 7167
  R1 luminescence readout: 7314
  R3 luminescence readout: 6605
  Ratio (Avg vs 0 conc): 1
[2]; 0.1 μM
  Avg luminescence readout: 9961
  R1 luminescence readout: 10680
  R3 luminescence readout: 9258
  Ratio (Avg vs 0 conc): 2
[2]; 0.3 μM
  Avg luminescence readout: 9506
  R1 luminescence readout: 11709
  R3 luminescence readout: 7904
  Ratio (Avg vs 0 conc): 1
[2]; 1 μM
  Avg luminescence readout: 15972
  R1 luminescence readout: 17111
  R3 luminescence readout: 14344
  Ratio (Avg vs 0 conc): 2

## CC[C@]1(O)C[C@@H]2CN(CCc3c([nH]c4ccccc34)[C@@](C(=O)OC)(c3cc4c(cc3OC)N(C)[C@H]3[C@@](O)(C(=O)OC)[C@H](OC(C)=O)[C@]5(CC)C=CCN6CC[C@]43[C@@H]65)C2)C1 [Vinblastine]
[1]
  increase in EFC activity (in words): no increase in EFC activity
[1]; 1.0 μg/mL
  Avg luminescence readout: 10744
  R1 luminescence readout: 10417.0
  R3 luminescence readout: 11042
  Ratio (Avg vs 0 conc): 1
[1]; 3.3 μg/mL
  Avg luminescence readout: 12078
  R1 luminescence readout: 10894.0
  R3 luminescence readout: 13468
  Ratio (Avg vs 0 conc): 1
[1]; 10.0 μg/mL
  Avg luminescence readout: 10751
  R1 luminescence readout: 10269.0
  R3 luminescence readout: 11281
  Ratio (Avg vs 0 conc): 1
[1]; 30.0 μg/mL
  Avg luminescence readout: 10933
  R1 luminescence readout: 10692.0
  R3 luminescence readout: 11196
  Ratio (Avg vs 0 conc): 1
[2]; 1.0 μg/mL
  Avg luminescence readout: 4335
  R1 luminescence readout: 4205
  R3 luminescence readout: 4277
  Ratio (Avg vs 0 conc): 1
[2]; 3.3 μg/mL
  Avg luminescence readout: 4345
  R1 luminescence readout: 4410
  R3 luminescence readout: 4436
  Ratio (Avg vs 0 conc): 1
[2]; 10.0 μg/mL
  Avg luminescence readout: 4078
  R1 luminescence readout: 3907
  R3 luminescence readout: 4201
  Ratio (Avg vs 0 conc): 1
[2]; 30.0 μg/mL
  Avg luminescence readout: 5919
  R1 luminescence readout: 5161
  R3 luminescence readout: 6583
  Ratio (Avg vs 0 conc): 1
